These are literature values, as cited in patent US10028967B2, “Medicament” (Symrise AG, priority 2014, dated 2018).

For the data set the following is noted: oral phenylephrine, compared to intravenous pseudoephedrine; reduced and variable.

As to `CNC[C@H](O)c1cccc(O)c1` [Phenylephrine], the bioavailability result is given as “up to 38%”.
